BindingDB's records for doi:10.7270/Q2X63KBQ (The Scripps Research Institute Molecular Screening Center, 2009)

Target: VIM-2 metallo β-lactamase (Pseudomonas aeruginosa, UniProt Q9K2N0)
Assay: concentration-dependent VIM-2 enzyme inhibition – biochemical, epi-absorbance readout, selective inhibitors, dose response (AID 1919)

| Structure (SMILES) | IC50 [µM] |
| --- | --- |
| COc1cc(OC)c(OC)cc1C=NNC(=O)Cc1c(C)[nH][nH]c1=O [MLS000555854] | 4.22 |
| O=C1C(=O)N(Cc2cccnc2)C(c2ccccn2)C1C(=O)c1cccs1 (stereo not drawn) [3-hydroxy-5-(2-pyridinyl)-1-(3-pyridinylmethyl)-4-(2-thienylcarbonyl)-1,5-dihydro-2H-pyrrol-2-one] | 13.2 |
| O=C1C(=O)N(Cc2cccnc2)C(c2ccccn2)C1C(=O)c1ccc(F)cc1 (stereo not drawn) [(4Z)-4-[(4-fluorophenyl)-hydroxy-methylene]-5-(2-pyridyl)-1-(3-pyridylmethyl)pyrrolidine-2,3-quinone] | 2.42 |
| COc1ccc(C(=O)C2C(=O)C(=O)N(Cc3ccco3)C2c2cc(OC)ccc2OC)cc1 (stereo not drawn) [(4E)-5-(2,5-dimethoxyphenyl)-1-(2-furanylmethyl)-4-[hydroxy-(4-methoxyphenyl)methylidene]pyrrolidine-2,3-dione] | 12.8 |
| COc1ccc(OC)c(C=NNC(=O)Cc2c(C)[nH][nH]c2=O)c1 [SMR000147372] | 6.1 |
| O=C1C(=O)N(Cc2cccnc2)C(c2ccccn2)C1C(=O)c1ccccc1 (stereo not drawn) [(4Z)-4-[hydroxy(phenyl)methylene]-5-(2-pyridyl)-1-(3-pyridylmethyl)pyrrolidine-2,3-quinone] | 5 |
| COc1ccc(OC)c(C2C(C(=O)c3ccco3)C(=O)C(=O)N2Cc2cccnc2)c1 (stereo not drawn) [2-(2,5-dimethoxyphenyl)-3-(furan-2-carbonyl)-4-hydroxy-1-(pyridin-3-ylmethyl)-2H-pyrrol-5-one] | 1.94 |

Target: Beta-lactamase (Pseudomonas aeruginosa, UniProt Q932Y6)
Assay: as above

Chain of Beta-lactamase (Q932Y6 whole entry): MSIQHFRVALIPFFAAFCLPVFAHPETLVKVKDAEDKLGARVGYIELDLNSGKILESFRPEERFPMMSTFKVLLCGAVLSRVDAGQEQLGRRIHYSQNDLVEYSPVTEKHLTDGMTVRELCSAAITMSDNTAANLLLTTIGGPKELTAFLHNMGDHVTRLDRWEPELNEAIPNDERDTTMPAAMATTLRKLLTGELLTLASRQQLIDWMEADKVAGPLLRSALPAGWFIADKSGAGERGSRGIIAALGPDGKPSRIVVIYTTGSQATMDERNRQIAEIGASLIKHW

| Structure (SMILES) | IC50 [µM] |
| --- | --- |
| Cn1c(-c2sccc2OCc2ccc(Cl)cc2Cl)n[nH]c1=S | 6.63 |
